Experiments:
[1] = tested on: CCRF-CEM; assay: NCI human cancer cell line growth inhibition: CCRF-CEM; format: cell-based; conditions: Leukemia
[2] = tested on: MOLT-4; assay: NCI human cancer cell line growth inhibition: MOLT-4; format: cell-based; conditions: MOLT-4, Leukemia
[3] = tested on: HCT-15; assay: NCI human cancer cell line growth inhibition: HCT-15; format: cell-based; conditions: HCT-15, Colon
[4] = tested on: RXF-393; assay: NCI human cancer cell line growth inhibition: RXF-393; format: cell-based; conditions: RXF-393, Renal
[5] = tested on: A549/ATCC; assay: NCI human cancer cell line growth inhibition: A549/ATCC; format: cell-based; conditions: NSC Lung
[6] = tested on: HCT-116; assay: NCI human cancer cell line growth inhibition: HCT-116; format: cell-based; conditions: HCT-116, Colon
[7] = tested on: SF-295; assay: NCI human cancer cell line growth inhibition: SF-295; format: cell-based; conditions: SF-295, CNS
[8] = tested on: MCF7; assay: NCI human cancer cell line growth inhibition: MCF7; format: cell-based; conditions: MCF7, Breast
[9] = tested on: SNB-19; assay: NCI human cancer cell line growth inhibition: SNB-19; format: cell-based; conditions: SNB-19, CNS
[10] = tested on: SK-MEL-2; assay: NCI human cancer cell line growth inhibition: SK-MEL-2; format: cell-based; conditions: SK-MEL-2, Melanoma
[11] = tested on: COLO 205; assay: NCI human cancer cell line growth inhibition: COLO 205; format: cell-based; conditions: COLO 205, Colon
[12] = tested on: HCC-2998; assay: NCI human cancer cell line growth inhibition: HCC-2998; format: cell-based; conditions: HCC-2998, Colon
[13] = tested on: DU-145; assay: NCI human cancer cell line growth inhibition: DU-145; format: cell-based; conditions: DU-145, Prostate
[14] = tested on: EKVX; assay: NCI human cancer cell line growth inhibition: EKVX; format: cell-based; conditions: NSC Lung
[15] = tested on: K-562; assay: NCI human cancer cell line growth inhibition: K-562; format: cell-based; conditions: K-562, Leukemia
[16] = tested on: MDA-MB-435; assay: NCI human cancer cell line growth inhibition: MDA-MB-435; format: cell-based; conditions: MDA-MB-435, Breast
[17] = tested on: NCI-H460; format: cell-based, human; conditions: NCI-H460, NSC Lung
[18] = tested on: ACHN; assay: NCI human cancer cell line growth inhibition: ACHN; format: cell-based; conditions: Renal
[19] = tested on: HT29; assay: NCI human cancer cell line growth inhibition: HT29; format: cell-based; conditions: HT29, Colon
[20] = tested on: T-47D; assay: NCI human cancer cell line growth inhibition: T-47D; format: cell-based; conditions: Breast
[21] = tested on: SN12C; assay: NCI human cancer cell line growth inhibition: SN12C; format: cell-based; conditions: Renal
[22] = tested on: UACC-62; assay: NCI human cancer cell line growth inhibition: UACC-62; format: cell-based; conditions: UACC-62, Melanoma
[23] = tested on: CAKI-1; assay: NCI human cancer cell line growth inhibition: CAKI-1; format: cell-based; conditions: CAKI-1, Renal
[24] = tested on: BT-549; assay: NCI human cancer cell line growth inhibition: BT-549; format: cell-based; conditions: BT-549, Breast
[25] = tested on: LOX IMVI; assay: NCI human cancer cell line growth inhibition: LOX IMVI; format: cell-based; conditions: Melanoma
[26] = tested on: OVCAR-3; assay: NCI human cancer cell line growth inhibition: OVCAR-3; format: cell-based; conditions: OVCAR-3, Ovarian
[27] = tested on: MDA-MB-231/ATCC; assay: NCI human cancer cell line growth inhibition: MDA-MB-231/ATCC; format: cell-based; conditions: Breast
[28] = tested on: SF-268; assay: NCI human cancer cell line growth inhibition: SF-268; format: cell-based; conditions: SF-268, CNS
[29] = tested on: SK-MEL-5; assay: NCI human cancer cell line growth inhibition: SK-MEL-5; format: cell-based; conditions: SK-MEL-5, Melanoma
[30] = tested on: SR; assay: NCI human cancer cell line growth inhibition: SR; format: cell-based; conditions: Leukemia
[31] = tested on: NCI/ADR-RES; format: cell-based, human; conditions: Breast
[32] = tested on: RPMI-8226; assay: NCI human cancer cell line growth inhibition: RPMI-8226; format: cell-based; conditions: RPMI-8226, Leukemia
[33] = tested on: IGROVI; assay: NCI human cancer cell line growth inhibition: IGROVI; format: cell-based; conditions: Ovarian
[34] = tested on: A498; assay: NCI human cancer cell line growth inhibition: A498; format: cell-based; conditions: A498, Renal
[35] = tested on: UACC-257; assay: NCI human cancer cell line growth inhibition: UACC-257; format: cell-based; conditions: UACC-257, Melanoma
[36] = tested on: HOP-62; assay: NCI human cancer cell line growth inhibition: HOP-62; format: cell-based; conditions: HOP-62, NSC Lung
[37] = tested on: KM12; assay: NCI human cancer cell line growth inhibition: KM12; format: cell-based; conditions: KM12, Colon
[38] = tested on: OVCAR-4; assay: NCI human cancer cell line growth inhibition: OVCAR-4; format: cell-based; conditions: OVCAR-4, Ovarian
[39] = tested on: PC-3; assay: NCI human cancer cell line growth inhibition: PC-3; format: cell-based; conditions: PC-3, Prostate
[40] = tested on: MDA-N; assay: NCI human cancer cell line growth inhibition: MDA-N; format: cell-based; conditions: Breast
[41] = tested on: HOP-92; assay: NCI human cancer cell line growth inhibition: HOP-92; format: cell-based; conditions: HOP-92, NSC Lung
[42] = tested on: HL-60(TB); assay: cells; format: cell-based, human
[43] = tested on: NCI-H23; format: cell-based, human; conditions: NCI-H23, NSC Lung
[44] = tested on: NCI-H226; format: cell-based, human; conditions: NCI-H226, NSC Lung
[45] = tested on: SNB-75; assay: NCI human cancer cell line growth inhibition: SNB-75; format: cell-based; conditions: SNB-75, CNS
[46] = tested on: NCI-H522; format: cell-based, human; conditions: NCI-H522, NSC Lung
[47] = tested on: TK-10; assay: NCI human cancer cell line growth inhibition: TK-10; format: cell-based; conditions: TK-10, Renal
[48] = tested on: SK-MEL-28; assay: NCI human cancer cell line growth inhibition: SK-MEL-28; format: cell-based; conditions: SK-MEL-28, Melanoma
[49] = tested on: OVCAR-8; assay: NCI human cancer cell line growth inhibition: OVCAR-8; format: cell-based; conditions: OVCAR-8, Ovarian
[50] = tested on: MI4; assay: NCI human cancer cell line growth inhibition: MI4; format: cell-based; conditions: MI4, Melanoma
[51] = tested on: HS 578T; assay: NCI human cancer cell line growth inhibition: HS 578T; format: cell-based; conditions: Breast
[52] = tested on: OVCAR-5; assay: NCI human cancer cell line growth inhibition: OVCAR-5; format: cell-based; conditions: OVCAR-5, Ovarian
[53] = tested on: SW-620; assay: NCI human cancer cell line growth inhibition: SW-620; format: cell-based; conditions: SW-620, Colon
[54] = tested on: SF-539; assay: NCI human cancer cell line growth inhibition: SF-539; format: cell-based; conditions: SF-539, CNS
[55] = tested on: U251; assay: NCI human cancer cell line growth inhibition: U251; format: cell-based; conditions: U251, CNS
[56] = tested on: SK-OV-3; assay: NCI human cancer cell line growth inhibition: SK-OV-3; format: cell-based; conditions: SK-OV-3, Ovarian
[57] = tested on: 786-0; assay: NCI human cancer cell line growth inhibition: 786-0; format: cell-based; conditions: 786-0, Renal
[58] = tested on: UO-31; assay: NCI human cancer cell line growth inhibition: UO-31; format: cell-based; conditions: UO-31, Renal
[59] = tested on: MALME-3M; assay: NCI human cancer cell line growth inhibition: MALME-3M; format: cell-based; conditions: Melanoma

Measured: Growth inhibition (GI50)

CCC/C=C/C=C/C(=O)O[C@H]1/C(=C/C(=O)OC)C[C@H]2C[C@H]([C@@H](C)O)OC(=O)C[C@H](O)C[C@@H]3C[C@H](OC(C)=O)C(C)(C)[C@](O)(C[C@@H]4C/C(=C/C(=O)OC)C[C@H](/C=C/C(C)(C)[C@]1(O)O2)O4)O3 [Bryo-1, reference compound]
−5.50 log of molar concentration: [2] | [18] | [38] | [45] | [53]
−5.60 log of molar concentration: [17] | [58]
−5.40 log of molar concentration: [11] | [15] | [23]
−5.20 log of molar concentration: [5] | [7] | [8] | [10] | [20] | [27] | [37] | [57] | [59]
−5.2 log of molar concentration: [51]
−5.10 log of molar concentration: [16] | [21] | [24] | [25] | [26] | [28] | [35] | [40] | [48] | [49] | [55] | [56]
−5.30 log of molar concentration: [1] | [4] | [6] | [12] | [14] | [19] | [22] | [33] | [39] | [41]
−5.70 log of molar concentration: [29] | [42]
>−5 log of molar concentration: all other assays above
